Measured values as given in patent publication US20160219881A1, “HERBICIDALLY ACTIVE 2-HALOGEN-4-ALKYNYL-PHENYL-PYRAZOLIDINE-DIONE OR PYRROLIDINE-DIONE DERIVATIVES” (SYNGENTA LIMITED, priority 2013, published 2016).

Columns and labels:
Type in all cases: in vivo
[1] = system: Brassica napus (BRSNN, rape); test: Biological Example 3 (Test 2 glasshouse assay), post-emergence herbicidal activity
Method: (§1) Seeds of a variety of monocotyledonous and dicotyledonous test plants are sown in standard soil in pots. The plants are cultivated for one day (for pre-emergence) or for about 12 days (range=10-13 days) (for post-emergence) under controlled conditions in a glasshouse (warm climate species at 24/18° C., cool climate species at 20/16° C., both at day/night; 16 hours light; 65% humidity).
(§2) An “instant formulation”, known as the “IF50”, containing 50 g/litre (i.e. 5% w/v) of the “technical” (i.e. unformulated) active ingredient is prepared by dissolving the active ingredient in a mixture of organic solvents and emulsifier, details of which are provided in the Table below. This IF50 is then mixed with a small, variable amount of acetone to aid dissolution, before addition of a 0.2% v/v aqueous solution of the adjuvant X-77 (which is a mixture of alkyl aryl polyoxyethylene glycols and free fatty acids in isopropanol, CAS Registry number 11097-66-8), as the aqueous diluent, to form an aqueous spray solution which contains a predetermined concentration of the active ingredient (which varies depending on the application rate of the active ingredient to the plants) and 0.2% v/v of the adjuvant X-77. This aqueous spray solution is then sprayed onto the plants, after one day's cultivation (for pre-emergence) or after about 12 days' cultivation (for post-emergence).
(§3) The test plants are then grown on, in a glasshouse (greenhouse) under controlled conditions (at either 24/18° C. or 20/16° C. (day/night) as mentioned above; 16 hours light; 65% humidity) and are watered twice daily. Either 15 days after application of the test compound (15 DAA) (for post-emergence), or 20 days after application of the test compound (20 DAA) (for pre-emergence), the test plants are evaluated visually, and an assessed percentage phytotoxicity score is given for each compound application on each plant species (where 100%=total damage to plant; 0%=no damage to plant).
(§4) Cool climate crop plants: Triticum aestivum (TRZAW, winter wheat), Brassica napus (BRSNN, rape, also called oilseed rape or rapeseed), Beta vulgaris (BEAVA, sugar beet). Warm climate crop plants: Glycine max (GLXMA, soybean). Cool climate (“cool season”) grassy monocotyledonous weeds: Alopecurus myosuroides (ALOMY), Avena fatua (AVEFA), Lolium perenne (LOLPE). Warm climate (“warm season”) grassy monocotyledonous weeds: Setaria faberi (SETFA), SORVU (Sorghum bicolor (L.) Moench ssp. Bicolor, or Sorghum vulgare Pers.), Digitaria sanguinalis (DIGSA), Echinochloa crus-galli (ECHCG), and Brachiaria plantaginea (BRAPL).

[2] = system: Digitaria sanguinalis (DIGSA); test: as above
Method: as §1, §2, §3, §4

[3] = system: Setaria faberi (SETFA); test: as above
Method: as §1, §2, §3, §4

[4] = system: SORVU (Sorghum bicolor (L.) Moench ssp. Bicolor, or Sorghum vulgare Pers.); test: as above
Method: as §1, §2, §3, §4

[5] = system: Beta vulgaris (BEAVA, sugar beet); test: as above
Method: as §1, §2, §3, §4

[6] = system: Lolium perenne (LOLPE); test: as above
Method: as §1, §2, §3, §4

[7] = system: Triticum aestivum (TRZAW, winter wheat); test: as above
Method: as §1, §2, §3, §4

[8] = system: Glycine max (GLXMA, soybean); test: as above
Method: as §1, §2, §3, §4

[9] = system: Brachiaria plantaginea (BRAPL); test: as above
Method: as §1, §2, §3, §4

[10] = system: Alopecurus myosuroides (ALOMY); test: as above
Method: as §1, §2, §3, §4

[11] = system: Echinochloa crus-galli (ECHCG); test: as above
Method: as §1, §2, §3, §4

[12] = system: Alopecurus myosuroides (ALOMY); test: Test 1A glasshouse assay, post-emergence herbicidal activity; conditions: 312 h, 13 days after application, read-out: Post-Emergence Herbicidal Activity (% Phytotoxicity) ALOMY
Method: (§5) Seeds of a variety of test species are sown in standard soil (usually sandy soil) in pots. After cultivation for one day (pre-emergence) or after 8 days cultivation (post-emergence) under controlled conditions in a glasshouse (at 24/16° C., day/night; 14 hours light; 65% humidity), the plants are sprayed with an aqueous spray solution derived from the formulation of the technical active ingredient (compound) in acetone/water (50:50) solution containing 0.5% Tween 20 (polyoxyethylene sorbitan monolaurate, CAS RN 9005-64-5). The test plants are then grown under controlled conditions in a glasshouse (at 24/16° C., day/night; 14 hours light; 65% humidity) and watered twice daily. 13 days after application of the test compounds, for pre- and post-emergence, the test is evaluated visually for percentage phytotoxicity to each plant (where 100%=total damage to plant; 0%=no damage to plant).
(§6) Alopecurus myosuroides (ALOMY), Setaria faberi (SETFA), Echinochloa crus-galli (ECHCG), Amaranthus retroflexus (AMARE), and Abutilon theophasti Medik. (ABUTH, common English name “velvetleaf”). Of these, Alopecurus myosuroides (ALOMY), Setaria faberi (SETFA), and Echinochloa crus-galli (ECHCG) are grassy monocotyledonous weeds. […]

[13] = system: Echinochloa crus-galli (ECHCG); test: as above; conditions: 312 h, 13 days after application, read-out: Post-Emergence Herbicidal Activity (% Phytotoxicity) ECHCG
Method: as §5, §6

| Structure (SMILES) | Post-Emergence Herbicidal Activity (Percentage Phytotoxicity) BRSNN ([1]; 30 g/ha) [%] | Post-Emergence Herbicidal Activity (Percentage Phytotoxicity) BRSNN ([1]; 125 g/ha) [%] | Post-Emergence Herbicidal Activity (Percentage Phytotoxicity) DIGSA ([2]; 30 g/ha (rate by row order)) [%] | Post-Emergence Herbicidal Activity (Percentage Phytotoxicity) DIGSA ([2]; 125 g/ha (rate by row order)) [%] | Post-Emergence Herbicidal Activity (Percentage Phytotoxicity) SORVU ([4]; 30 g/ha (rate by row order)) [%] | Post-Emergence Herbicidal Activity (Percentage Phytotoxicity) SORVU ([4]; 125 g/ha (rate by row order)) [%] | Post-Emergence Herbicidal Activity (Percentage Phytotoxicity) BEAVA ([5]; 30 g/ha) [%] | Post-Emergence Herbicidal Activity (Percentage Phytotoxicity) BEAVA ([5]; 125 g/ha) [%] | Post-Emergence Herbicidal Activity (Percentage Phytotoxicity) LOLPE ([6]; 30 g/ha) [%] | Post-Emergence Herbicidal Activity (Percentage Phytotoxicity) LOLPE ([6]; 125 g/ha) [%] | Post-Emergence Herbicidal Activity (Percentage Phytotoxicity) TRZAW ([7]; 30 g/ha) [%] | Post-Emergence Herbicidal Activity (Percentage Phytotoxicity) TRZAW ([7]; 125 g/ha) [%] | Post-Emergence Herbicidal Activity (Percentage Phytotoxicity) GLXMA ([8]; 30 g/ha) [%] | Post-Emergence Herbicidal Activity (Percentage Phytotoxicity) GLXMA ([8]; 125 g/ha) [%] | Post-Emergence Herbicidal Activity (Percentage Phytotoxicity) BRAPL ([9]; 30 g/ha (rate by row order)) [%] | Post-Emergence Herbicidal Activity (Percentage Phytotoxicity) BRAPL ([9]; 125 g/ha (rate by row order)) [%] | Post-Emergence Herbicidal Activity (Percentage Phytotoxicity) ALOMY ([10]; 30 g/ha) [%] | Post-Emergence Herbicidal Activity (Percentage Phytotoxicity) ALOMY ([10]; 125 g/ha) [%] | inhibition at 250 g/ha [12] [%] | inhibition at 250 g/ha [13] [%] | other results |
| --- | --- | --- | --- | --- | --- | --- | --- | --- | --- | --- | --- | --- | --- | --- | --- | --- | --- | --- | --- | --- | --- |
| CC#Cc1cc(C)c(C2C(=O)N3CCCCCN3C2=O)c(C)c1 [Compound A23, 2-(2,6-dimethyl-4-prop-1-ynyl-phenyl)-6,7,8,9-tetrahydro-5H-pyrazolo[1,2-a]diazepine-1,3-dione] | 30 | 50 | 30 | 70 | 50 | 70 | 10 | 40 | 0 | 40 | 0 | 50 | 0 | 70 | 0 | 10 | 0 | 50 | 80 | 80 | Post-Emergence Herbicidal Activity (Percentage Phytotoxicity) SETFA ([3]; 30 g/ha (rate by row order)): 0%; Post-Emergence Herbicidal Activity (Percentage Phytotoxicity) SETFA ([3]; 125 g/ha (rate by row order)): 70%; Post-Emergence Herbicidal Activity (Percentage Phytotoxicity) ECHCG ([11]; 30 g/ha (rate by row order)): 0%; Post-Emergence Herbicidal Activity (Percentage Phytotoxicity) ECHCG ([11]; 125 g/ha (rate by row order)): 20% |
| CC#Cc1cc(C)c(-c2c(OC(=O)C(C)(C)C)n3n(c2=O)CCOCC3)c(C)c1 [Compound P4] | 80 | 80 | 90 | 90 | 80 | 100 | 40 | 50 | 40 | 50 | 40 | 80 | 60 | 70 | 90 | 100 | 60 | 70 | 90 | 100 | Post-Emergence Herbicidal Activity (Percentage Phytotoxicity) BRSNN ([1]; 8 g/ha): 70%; Post-Emergence Herbicidal Activity (Percentage Phytotoxicity) DIGSA ([2]; 8 g/ha (rate by row order)): 80%; Post-Emergence Herbicidal Activity (Percentage Phytotoxicity) SETFA ([3]; 8 g/ha (rate by row order)): 70%; Post-Emergence Herbicidal Activity (Percentage Phytotoxicity) SETFA ([3]; 30 g/ha (rate by row order)): 80%; Post-Emergence Herbicidal Activity (Percentage Phytotoxicity) SETFA ([3]; 125 g/ha (rate by row order)): 90%; Post-Emergence Herbicidal Activity (Percentage Phytotoxicity) SORVU ([4]; 8 g/ha (rate by row order)): 70%; Post-Emergence Herbicidal Activity (Percentage Phytotoxicity) BEAVA ([5]; 8 g/ha): 30%; Post-Emergence Herbicidal Activity (Percentage Phytotoxicity) LOLPE ([6]; 8 g/ha): 30%; Post-Emergence Herbicidal Activity (Percentage Phytotoxicity) TRZAW ([7]; 8 g/ha): 10%; Post-Emergence Herbicidal Activity (Percentage Phytotoxicity) GLXMA ([8]; 8 g/ha): 50%; Post-Emergence Herbicidal Activity (Percentage Phytotoxicity) BRAPL ([9]; 8 g/ha (rate by row order)): 90%; Post-Emergence Herbicidal Activity (Percentage Phytotoxicity) ALOMY ([10]; 8 g/ha): 20%; Post-Emergence Herbicidal Activity (Percentage Phytotoxicity) ECHCG ([11]; 8 g/ha (rate by row order)): 60%; Post-Emergence Herbicidal Activity (Percentage Phytotoxicity) ECHCG ([11]; 30 g/ha (rate by row order)): 90%; Post-Emergence Herbicidal Activity (Percentage Phytotoxicity) ECHCG ([11]; 125 g/ha (rate by row order)): 100%; inhibition at 30 g/ha ([12]; 30 g/ha): 70%; inhibition at 30 g/ha ([13]; 30 g/ha): 100% |
| CC#Cc1cc(C)c(C2C(=O)N(C)N(C)C2=O)c(C)c1 [Compound A1] | 70 | 70 | 80 | 90 | 70 | 80 | 0 | 10 | 30 | 80 | 30 | 80 | 30 | 70 | 70 | 100 | 10 | 70 | 0 | 40 | Post-Emergence Herbicidal Activity (Percentage Phytotoxicity) ECHCG ([11]; 30 g/ha (rate by row order)): 70%; Post-Emergence Herbicidal Activity (Percentage Phytotoxicity) ECHCG ([11]; 125 g/ha (rate by row order)): 90% |
| CC#Cc1cc(C)c(C2C(=O)C(Cc3ccccn3)N(C)C2=O)c(C)c1 (centres unmarked) [Compound A50, 3-(2,6-dimethyl-4-prop-1-ynyl-phenyl)-1-methyl-5-(2-pyridylmethyl)pyrrolidine-2,4-dione] | – | – | – | – | – | – | – | – | – | – | – | – | – | – | – | – | – | – | 100 | 100 | inhibition at 15.625 g/ha ([12]; 15.625 g/ha): 30%; inhibition at 62.5 g/ha ([12]; 62.5 g/ha): 90%; inhibition at 15.625 g/ha ([13]; 15.625 g/ha): 80%; inhibition at 62.5 g/ha ([13]; 62.5 g/ha): 100% |
